The values below come from patent US20250387403A1, “SELECTIVE SIGMA-2 RECEPTOR LIGANDS AS MODULATORS OF TMEM97” (BOARD OF REGENTS, THE UNIVERSITY OF TEXAS SYSTEM, priority 2022, published 2025).

In series [1] the test system is primary cortical neurons transfected with plasmids expressing mHTT (Htt-N586-82Q). The experiment in a line: mHTT-induced toxicity in transfected primary cortical neurons (HD cell model). In kind it is cell-based. As for the experimental part: Toward testing the hypothesis that selective modulators of σ2R/TMEM97 have neuroprotective attributes in Huntington's disease, a small panel of compounds were evaluated with differing affinities and selectivities for σ2R/TMEM97 in a primary neuron model of HD. […] In the present disclosure, these compounds are tested in an HD cell model to assess the effects of these compounds upon mHTT-induced neuronal toxicity. Briefly, primary neurons were co-transfected with plasmid expression of a 586 N-terminal Htt polypeptide with either normal Q (Htt-N586-22Q) or expanded Q (Htt-N586-82Q) repeats and green fluorescent protein (GFP).
Stock solutions of σ2R/TMEM97 modulators were prepared by dissolving the compound in DMSO to a concentration of 10 mM. For the in vitro assays, the stock solution was diluted with culture medium (1:1000) to a working concentration of 10 μM of σ2R/TMEM97 modulator. Serial dilutions were then performed using culture medium to prepare other concentrations of the modulator. The final DMSO concentration is less than 0.1%. The vehicle group was performed using 0.1% DMSO in culture medium.
To assess the possible neuroprotective effects of selective σ2R/TMEM97 modulators in neurodegenerative processes associated with HD, a cell model was used that has been previously described (Arbez et al, 2017).

In series [2] the test system is spared nerve injury (SNI) model. Particulars: earlier studies (Sahn et al, 2017); cited from earlier work.
The next series relates to neurite outgrowth. The experiment in a line: Neurite outgrowth. Type of series: cell-based.
The test system of series [3] is spared nerve injury (SNI) model. The series can be described thus: Spared nerve injury (SNI) neuropathic pain model. Type of series: in vivo, mice.
The subject of series [4] is integrated stress response. The series can be described thus: Integrated stress response. In kind it is cell-based.

As for `OCCCN1CCCC2CC1c1cc(-c3ccc(C(F)(F)F)cc3)ccc12` (stereo not shown) [UKH-1114], the “neuroprotection against mHTT-induced neuronal toxicity” value in series [1] (concentrations 0.01-10 μM) was “significant neuroprotection in a dose dependent fashion”. The intrinsic toxicity result in series [1] (primary cortical neurons) is given as “None of these compounds appear to exhibit any intrinsic toxicity”. For the same compound, in series [2], the “pain relief in the SNI model” value is recorded as “relieved pain”.
On to `OCCCN1CC[C@@H]2C[C@H]1c1cc(-c3ccc(C(F)(F)F)cc3)ccc12` [FEM-1689, 3-((1S,5R)-8-(4-(Trifluoromethyl)phenyl)-1,3,4,5-tetrahydro-2H-1,5-methanobenzo[c]azepin-2-yl) propan-1-ol], for which the “effect on neurite outgrowth” value in the series on neurite outgrowth was “promotes neurite outgrowth”. The “analgesic effect after SNI” value in series [3] (global σ2R/TMEM97 knockout mouse) was “fails to produce an analgesic effect”. In series [3] (wild-type male and female mice), the “mechanical hypersensitivity after SNI” value is “reverses mechanical hypersensitivity”. Besides, in series [4], the “effect on the integrated stress response” value is listed as “inhibits the integrated stress response”.
